Reference: ChEMBL document CHEMBL1201862, “PubChem BioAssay data set” (2004)
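Five compound concentrations were applied to cells in 96-well plates for 48 hours; endpoints were derived by simple linear interpolation of the resulting dose-response curve. At the GI50, growth is halved.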 Activity calls are given as the source filed them. No stated cut-off is given here; in the data, active = GI50 up to about 1.1 µM and inactive = higher.

Assays:
Assay in all cases: NCI-60 cell line screen, 48 h
[1] = test system: HCC 2998
[2] = test system: DU-145
[3] = test system: HL-60
[4] = test system: RPMI-8226
[5] = test system: A549
[6] = test system: U-251
[7] = test system: HCT-116
[8] = test system: MOLT-4
[9] = test system: SN12C
[10] = test system: UACC-257
[11] = test system: Hs-578T
[12] = test system: OVCAR-4
[13] = test system: MCF7
[14] = test system: SF-539
[15] = test system: BT-549
[16] = test system: PC-3
[17] = test system: HOP-92
[18] = test system: RXF 393
[19] = test system: SF-268
[20] = test system: LOX IMVI
[21] = test system: NCI-H23
[22] = test system: NCI-H460
[23] = test system: MDA-MB-231
[24] = test system: SNB-19
[25] = test system: CAKI-1
[26] = test system: HOP-62
[27] = test system: A498
[28] = test system: ACHN
[29] = test system: COLO 205
[30] = test system: TK-10
[31] = test system: MDA-MB-435
[32] = test system: HT-29
[33] = test system: EKVX
[34] = test system: K562
[35] = test system: SF-295
[36] = test system: SW-620
[37] = test system: OVCAR-8
[38] = test system: SK-MEL-5
[39] = test system: CCRF-CEM
[40] = test system: OVCAR-5
[41] = test system: NCI/ADR-RES
[42] = test system: 786-0
[43] = test system: SK-MEL-28
[44] = test system: NCI-H226
[45] = test system: NCI-H522
[46] = test system: KM12
[47] = test system: IGROV-1
[48] = test system: UO-31
[49] = test system: OVCAR-3
[50] = test system: Malme-3M
[51] = test system: HCT-15
[52] = test system: MDA-N
[53] = test system: SK-OV-3
[54] = test system: T47D
[55] = test system: SNB-75
[56] = test system: SR
[57] = test system: UACC-62
[58] = test system: SK-MEL-2
[59] = test system: M14

## O=C(Nc1nc(C23CC4CC(CC(C4)C2)C3)cs1)c1cc2ccc(O)cc2oc1=O
[1]
  GI50: 10.6 µM (inactive)
[2]
  GI50: 18.3 µM (inactive)
[3]
  GI50: 10.3 µM (inactive)
[4]
  GI50: 5.35 µM (inactive)
[5]
  GI50: 15.9 µM (inactive)
[6]
  GI50: 12.8 µM (inactive)
[7]
  GI50: 10.1 µM (inactive)
[8]
  GI50: 5.9 µM (inactive)
[9]
  GI50: 11.2 µM (inactive)
[10]
  GI50: 15.6 µM (inactive)
[11]
  GI50: 14.5 µM (inactive)
[12]
  GI50: 8.26 µM (inactive)
[13]
  GI50: 14.1 µM (inactive)
[14]
  GI50: 17.1 µM (inactive)
[15]
  GI50: > 10 µM (inactive)
[16]
  GI50: 13.5 µM (inactive)
[17]
  GI50: 3.7 µM (inactive)
[18]
  GI50: 16.4 µM (inactive)
[19]
  GI50: 16.9 µM (inactive)
[20]
  GI50: 8.07 µM (inactive)
[21]
  GI50: 11.7 µM (inactive)
[22]
  GI50: 6.5 µM (inactive)
[23]
  GI50: 6.04 µM (inactive)
[24]
  GI50: 18.4 µM (inactive)
[25]
  GI50: 19.6 µM (inactive)
[26]
  GI50: 15.2 µM (inactive)
[27]
  GI50: 10.7 µM (inactive)
[28]
  GI50: 10.6 µM (inactive)
[29]
  GI50: 5.36 µM (inactive)
[30]
  GI50: 26.8 µM (inactive)
[31]
  GI50: 8.38 µM (inactive)
[32]
  GI50: 14.4 µM (inactive)
[33]
  GI50: 13.2 µM (inactive)
[34]
  GI50: 4.88 µM (inactive)
[35]
  GI50: 16.5 µM (inactive)
[36]
  GI50: 10.3 µM (inactive)
[37]
  GI50: 6.67 µM (inactive)
[38]
  GI50: 13.7 µM (inactive)
[39]
  GI50: 14.7 µM (inactive)
[40]
  GI50: 21 µM (inactive)
[41]
  GI50: 11.1 µM (inactive)
[42]
  GI50: 11.6 µM (inactive)
[43]
  GI50: 15.1 µM (inactive)
[44]
  GI50: 18 µM (inactive)
[45]
  GI50: 10.2 µM (inactive)
[46]
  GI50: 6.05 µM (inactive)
[47]
  GI50: 7.41 µM (inactive)
[48]
  GI50: 7.36 µM (inactive)
[49]
  GI50: 13.8 µM (inactive)
[50]
  GI50: 12 µM (inactive)
[51]
  GI50: 4.46 µM
[52]
  GI50: 14 µM (inactive)

## C=CCc1cccc2cc(C(=O)Nc3ccccn3)c(=N)oc12
[1]
  GI50: > 100 µM (inactive)
[2]
  GI50: > 100 µM (inactive)
[3]
  GI50: > 100 µM (inactive)
[4]
  GI50: > 100 µM (inactive)
[5]
  GI50: > 100 µM (inactive)
[53]
  GI50: > 100 µM (inactive)
[6]
  GI50: > 100 µM (inactive)
[7]
  GI50: 56.6 µM (inactive)
[8]
  GI50: > 100 µM (inactive)
[9]
  GI50: > 100 µM (inactive)
[10]
  GI50: > 100 µM (inactive)
[54]
  GI50: 55.5 µM (inactive)
[55]
  GI50: > 100 µM (inactive)
[11]
  GI50: > 100 µM (inactive)
[12]
  GI50: > 100 µM (inactive)
[13]
  GI50: > 100 µM (inactive)
[14]
  GI50: 92.5 µM (inactive)
[15]
  GI50: > 100 µM (inactive)
[16]
  GI50: > 100 µM (inactive)
[17]
  GI50: > 100 µM (inactive)
[18]
  GI50: > 100 µM (inactive)
[19]
  GI50: > 100 µM (inactive)
[56]
  GI50: > 100 µM (inactive)
[20]
  GI50: > 100 µM (inactive)
[57]
  GI50: > 100 µM (inactive)
[21]
  GI50: > 100 µM (inactive)
[22]
  GI50: > 100 µM (inactive)
[23]
  GI50: > 100 µM (inactive)
[24]
  GI50: > 100 µM (inactive)
[25]
  GI50: > 100 µM (inactive)
[26]
  GI50: > 100 µM (inactive)
[27]
  GI50: > 100 µM (inactive)
[28]
  GI50: 45.4 µM (inactive)
[29]
  GI50: > 100 µM (inactive)
[31]
  GI50: > 100 µM (inactive)
[32]
  GI50: > 100 µM (inactive)
[34]
  GI50: > 100 µM (inactive)
[36]
  GI50: > 100 µM (inactive)
[37]
  GI50: > 100 µM (inactive)
[38]
  GI50: > 100 µM (inactive)
[39]
  GI50: > 100 µM (inactive)
[40]
  GI50: > 100 µM (inactive)
[41]
  GI50: > 100 µM (inactive)
[42]
  GI50: 28.7 µM (inactive)
[43]
  GI50: > 100 µM (inactive)
[44]
  GI50: > 100 µM (inactive)
[58]
  GI50: > 100 µM (inactive)
[46]
  GI50: > 100 µM (inactive)
[59]
  GI50: > 100 µM (inactive)
[47]
  GI50: > 100 µM (inactive)
[49]
  GI50: > 100 µM (inactive)
[51]
  GI50: > 100 µM

## CN(C)CC(CN(C)C)c1ccccn1
[3]
  GI50: > 100 µM (inactive)
[4]
  GI50: > 100 µM (inactive)
[5]
  GI50: > 100 µM (inactive)
[53]
  GI50: > 100 µM (inactive)
[6]
  GI50: > 100 µM (inactive)
[7]
  GI50: > 100 µM (inactive)
[8]
  GI50: > 100 µM (inactive)
[9]
  GI50: > 100 µM (inactive)
[10]
  GI50: > 100 µM (inactive)
[11]
  GI50: > 100 µM (inactive)
[12]
  GI50: > 100 µM (inactive)
[13]
  GI50: > 100 µM (inactive)
[14]
  GI50: > 100 µM (inactive)
[15]
  GI50: > 100 µM (inactive)
[16]
  GI50: > 100 µM (inactive)
[17]
  GI50: > 100 µM (inactive)
[18]
  GI50: > 100 µM (inactive)
[19]
  GI50: > 100 µM (inactive)
[56]
  GI50: > 100 µM (inactive)
[20]
  GI50: > 100 µM (inactive)
[57]
  GI50: > 100 µM (inactive)
[21]
  GI50: > 100 µM (inactive)
[22]
  GI50: > 100 µM (inactive)
[23]
  GI50: > 100 µM (inactive)
[24]
  GI50: > 100 µM (inactive)
[25]
  GI50: > 100 µM (inactive)
[26]
  GI50: > 100 µM (inactive)
[27]
  GI50: > 100 µM (inactive)
[28]
  GI50: > 100 µM (inactive)
[29]
  GI50: > 100 µM (inactive)
[30]
  GI50: > 100 µM (inactive)
[31]
  GI50: > 100 µM (inactive)
[32]
  GI50: > 100 µM (inactive)
[33]
  GI50: > 100 µM (inactive)
[34]
  GI50: > 100 µM (inactive)
[35]
  GI50: > 100 µM (inactive)
[36]
  GI50: > 100 µM (inactive)
[37]
  GI50: > 100 µM (inactive)
[38]
  GI50: > 100 µM (inactive)
[39]
  GI50: > 100 µM (inactive)
[40]
  GI50: > 100 µM (inactive)
[41]
  GI50: > 100 µM (inactive)
[42]
  GI50: > 100 µM (inactive)
[43]
  GI50: > 100 µM (inactive)
[44]
  GI50: > 100 µM (inactive)
[45]
  GI50: > 100 µM (inactive)
[58]
  GI50: > 100 µM (inactive)
[46]
  GI50: > 100 µM (inactive)
[59]
  GI50: > 100 µM (inactive)
[47]
  GI50: > 100 µM (inactive)
[48]
  GI50: > 100 µM (inactive)
[49]
  GI50: > 100 µM (inactive)
[50]
  GI50: > 100 µM (inactive)
[51]
  GI50: > 100 µM
[52]
  GI50: > 100 µM (inactive)
